Experimental data reported in ChEMBL document CHEMBL1201862, “PubChem BioAssay data set” (2004).
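Where inhibition never reached the appropriate level, the endpoint shown equals the highest concentration tested. Otherwise, values were interpolated linearly from a five-concentration, 48-hour dose response in 96-well plates. Abbreviation: GI50, concentration required for 50% inhibition of growth.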 Calls of active or inactive are those of the source. No stated cut-off is given here; in the data, active = GI50 up to about 1.1 µM and inactive = higher.

Tests used:
Experiment in all cases: growth of human tumour cells (NCI), 48 h
A498 = tested on: A498
COLO 205 = tested on: COLO 205
EKVX = tested on: EKVX
HOP-62 = tested on: HOP-62
IGROV-1 = tested on: IGROV-1
K562 = tested on: K562
M14 = tested on: M14
MCF7 = tested on: MCF7
MOLT-4 = tested on: MOLT-4
Malme-3M = tested on: Malme-3M
NCI-H226 = tested on: NCI-H226
OVCAR-4 = tested on: OVCAR-4
RXF 393 = tested on: RXF 393
SF-295 = tested on: SF-295
SF-539 = tested on: SF-539
SK-MEL-5 = tested on: SK-MEL-5
SNB-19 = tested on: SNB-19
SR = tested on: SR
SW-620 = tested on: SW-620
UACC-257 = tested on: UACC-257

Measured: GI50

CC(=O)OC[C@H]1[C@@H]2C(CC[C@]13CO3)OC(=O)CC(C)[C@]2(C)CCc1ccoc1 (stereo not given in full)
inactive: A498 > 100 µM | COLO 205 > 100 µM | EKVX > 100 µM | HOP-62 > 100 µM | IGROV-1 > 100 µM | K562 > 100 µM | M14 > 100 µM | MCF7 > 100 µM | MOLT-4 > 100 µM | Malme-3M > 100 µM | NCI-H226 > 100 µM | OVCAR-4 > 100 µM | RXF 393 > 100 µM | SF-295 > 100 µM | SF-539 > 100 µM | SK-MEL-5 > 100 µM | SNB-19 > 100 µM | SR > 100 µM | SW-620 > 100 µM | UACC-257 > 100 µM
